Measurements published in ChEMBL document CHEMBL3885861, “Open TG-GATES”.

Species: Rattus norvegicus
Experiment: Open TG-GATES - Regimen: Daily Repeat
Format: toxicity, organism-based, Sprague-Dawley
Design: regimen Daily Repeat, gender Male, age 6 weeks
Conditions: in vivo, po, 0 mg/kg, route gavage, dose level Control; for APTT / Bas / Eos / Fbg / Hb / Ht / Lym / MCH / MCHC / MCV / Mono / Neu / PT / Plat / RBC / Ret / WBC: tissue Blood; for KIDNEY_L / KIDNEY_R / KIDNEY_TOTAL: tissue Kidney; for LIVER: tissue Liver; for A/G / ALP / ALT / AST / BUN / CRE / Ca / Cl / DBIL / GLC / IP / K / LDH / Na / PL / RALB / TBIL / TC / TG / TP / gamma-GTP: tissue Plasma

## Nc1c2c(nc3ccccc13)CCCC2 [TACRINE]
72 h, time 3 day
  TERMINAL_BW: 222.7 g
  APTT: 21.1 s
  Bas: 0%
  Eos: 1.2%
  Fbg: 304 mg/dL
  Hb: 13.6 g/dL
  Ht: 38.7%
  Lym: 80%
  MCH: 21.1 pg
  MCHC: 35%
  MCV: 60.4 fL
  Mono: 3%
  Neu: 14.8%
  PT: 16.8 s
  Plat: 125.8 x10_4/uL
  RBC: 641.8 x10_4/ul
  Ret: 6.4%
  WBC: 108.4 x10_2/uL
  KIDNEY_L: 0.9 g
  KIDNEY_R: 1 g
  KIDNEY_TOTAL: 1.9 g
  LIVER: 10.2 g
  A/G: 1.3
  ALP: 1665.8 IU/L
  ALT: 51.6 IU/L
  AST: 79 IU/L
  BUN: 17.4 mg/dL
  CRE: 0.2 mg/dL
  Ca: 10.9 mg/dL
  Cl: 107.2 meq/L
  DBIL: 0.002 mg/dL
  GLC: 200.2 mg/dL
  IP: 7.4 mg/dL
  K: 4.4 meq/L
  LDH: 264 IU/L
  Na: 142.8 meq/L
  PL: 158.4 mg/dL
  RALB: 3.1 g/dL
  TBIL: 0.01 mg/dL
  TC: 72.8 mg/dL
  TG: 132.8 mg/dL
  TP: 5.6 g/dL
  gamma-GTP: 1 IU/L
[…], time 7 day
  TERMINAL_BW: 252.2 g
  APTT: 21.6 s
  Bas: 0%
  Eos: 1%
  Fbg: 289 mg/dL
  Hb: 13.5 g/dL
  Ht: 38.4%
  Lym: 85%
  MCH: 21.2 pg
  MCHC: 35.2%
  MCV: 60.1 fL
  Mono: 2.2%
  Neu: 11%
  PT: 16.3 s
  Plat: 122.6 x10_4/uL
  RBC: 639.4 x10_4/ul
  Ret: 5.5%
  WBC: 142.5 x10_2/uL
  KIDNEY_L: 1.1 g
  KIDNEY_R: 1.1 g
  KIDNEY_TOTAL: 2.1 g
  LIVER: 11.2 g
  A/G: 1.2
  ALP: 1508 IU/L
  ALT: 36 IU/L
  AST: 67.6 IU/L
  BUN: 16.8 mg/dL
  CRE: 0.2 mg/dL
  Ca: 10.5 mg/dL
  Cl: 107.4 meq/L
  DBIL: 0 mg/dL
  GLC: 191.6 mg/dL
  IP: 7.1 mg/dL
  K: 4.2 meq/L
  LDH: 172.8 IU/L
  Na: 142 meq/L
  PL: 153.8 mg/dL
  RALB: 2.9 g/dL
  TBIL: 0.016 mg/dL
  TC: 77.6 mg/dL
  TG: 110 mg/dL
  TP: 5.4 g/dL
  gamma-GTP: 1 IU/L
[…], time 14 day
  TERMINAL_BW: 300.3 g
  APTT: 23 s
  Bas: 0%
  Eos: 0.8%
  Fbg: 323 mg/dL
  Hb: 15.4 g/dL
  Ht: 42.9%
  Lym: 79.6%
  MCH: 21.2 pg
  MCHC: 36%
  MCV: 58.8 fL
  Mono: 2.6%
  Neu: 16.4%
  PT: 15.6 s
  Plat: 117.8 x10_4/uL
  RBC: 728.8 x10_4/ul
  Ret: 4%
  WBC: 91.1 x10_2/uL
  KIDNEY_L: 1.2 g
  KIDNEY_R: 1.2 g
  KIDNEY_TOTAL: 2.3 g
  LIVER: 12.4 g
  A/G: 1.3
  ALP: 1565.4 IU/L
  ALT: 40 IU/L
  AST: 72 IU/L
  BUN: 20.6 mg/dL
  CRE: 0.2 mg/dL
  Ca: 10.7 mg/dL
  Cl: 108 meq/L
  DBIL: 0 mg/dL
  GLC: 192.8 mg/dL
  IP: 6.3 mg/dL
  K: 4.1 meq/L
  LDH: 184.8 IU/L
  Na: 142.2 meq/L
  PL: 161.6 mg/dL
  RALB: 3.3 g/dL
  TBIL: 0.012 mg/dL
  TC: 81.8 mg/dL
  TG: 123.4 mg/dL
  TP: 6 g/dL
  gamma-GTP: 1.2 IU/L
[…], time 28 day
  TERMINAL_BW: 378.9 g
  APTT: 23.1 s
  Bas: 0%
  Eos: 1%
  Fbg: 321 mg/dL
  Hb: 15.6 g/dL
  Ht: 41.5%
  Lym: 83.4%
  MCH: 20.8 pg
  MCHC: 37.6%
  MCV: 55.3 fL
  Mono: 1.6%
  Neu: 13%
  PT: 16 s
  Plat: 115 x10_4/uL
  RBC: 752 x10_4/ul
  Ret: 2.9%
  WBC: 108.3 x10_2/uL
  KIDNEY_L: 1.4 g
  KIDNEY_R: 1.4 g
  KIDNEY_TOTAL: 2.9 g
  LIVER: 15.5 g
  A/G: 1.1
  ALP: 1179.4 IU/L
  ALT: 38.6 IU/L
  AST: 61.6 IU/L
  BUN: 18.6 mg/dL
  CRE: 0.2 mg/dL
  Ca: 10.7 mg/dL
  Cl: 105.2 meq/L
  DBIL: 0 mg/dL
  GLC: 191.8 mg/dL
  IP: 5.9 mg/dL
  K: 4.1 meq/L
  LDH: 165.2 IU/L
  Na: 141.6 meq/L
  PL: 157.6 mg/dL
  RALB: 3.2 g/dL
  TBIL: 0.006 mg/dL
  TC: 75.4 mg/dL
  TG: 144.6 mg/dL
  TP: 6.2 g/dL
  gamma-GTP: 1 IU/L
